In brackets after ≈: the same amount, converted by molar mass. Like-named read-outs stand apart in the source and are kept apart here. Numbered stars: 1 amine (or outer) side, 2 acyl side, 3 side chain; on linkers, the order of the positions; unused ones are H or OH. Square brackets hold non-standard residues; d marks the D form. Peptide text beside a SMILES is read from it. X28 = CN([C@@H](Cc1cccc(-c2ccc(C(F)(F)F)cc2)c1)C(=O)[*:2])[*:1]; X31 = CN([C@@H](Cc1cccc(-c2cccc(C(F)(F)F)c2)c1)C(=O)[*:2])[*:1]; X33 = CN([C@@H](Cc1cccc(-c2ccc3ccccc3c2)c1)C(=O)[*:2])[*:1]; Hmp(2R,3S) = CC[C@H](C)[C@@H](O)C(=O)O; NMeVal(β-OH) = CN[C@H](C(=O)O)C(C)(C)O; NMeV = CN[C@H](C(=O)O)C(C)C
Experiments:
A. fumigatus MMX 5944 = assay: MIC/MEC assay (CLSI microdilution); assay type: cell-based; details: Aspergillus fumigatus, MMX5944, 48 h; for minimal effective concentration: RPMI plus 0.002% Tween-80; for MIC: RPMI plus 0.002% Tween-80, read-out: MIC
Description: (§1) Aureobasidin and test compounds (i.e., AbA derivatives of the present invention) were received from Kalexsyn, Inc. (Kalamazoo, Mich.) as powder and were stored at 4° C. until the day of assay. […] amphotericin was obtained from Sigma Aldrich and stored under like conditions. […] Ethanol (95%) was used as a solvent and diluent for all AbA compounds. Amphotericin B was tested from 0.06-64 μg/mL. Amphotericin B (Sigma Aldrich; St. Louis, Mo.; Cat No. A9528-100MG, Lot No. 120M4087) was dissolved and diluted with dimethylsulfoxide (DMSO; Sigma Aldrich; St. Louis, Mo.; Cat No. 472301 Lot No. SHBD2072V).
(§2) The solvents were added to the test agents and the stock solutions stood for approximately 1 hr at room temperature prior to use to auto sterilize. Stock solutions were prepared at 40× the desired top concentration in the test plate.
(§3) All of the test isolates were originally received from either the American Type Culture Collection (ATCC), clinical labs, or directly from Aureogen Biosciences. Organisms stored by Micromyx were cultured on agar medium appropriate to each organism. Colonies were picked by swab from the isolation plates and put into suspension in appropriate broth containing cryoprotectant. The suspensions were aliquoted into cryogenic vials and maintained at −80° C.
(§4) Prior to testing, Candida isolates were streaked from the frozen vials on Sabouraud dextrose agar. The yeast isolates were incubated for 48 hours at 35° C. before use. The fungal isolates were obtained from enumerated fungal stocks previously prepared at Micromyx and stored in phosphate buffered saline at 4° C.
(§5) Test Media. The medium employed for the MIC assay was RPMI-1640 medium from HyClone Laboratories (Logan, Utah; Lot No. AYB60287A). The medium was prepared according to Clinical and Laboratory Standards Institute (CLSI) guidelines (1, 2), and modified to include 0.002% Tween-80. Candida parapsilosis ATCC 22019 (MMX 2323) and Aspergillus fumigatus ATCC MYA-3626 (MMX 5280) were also tested without Tween-80 to provide data for the quality control of amphotericin B in accordance with CLSI (3) and to assess the effect of Tween-80 on the activity of the test agents.
(§6) Test Procedure. The MIC assay method followed the procedure described by CLSI (1, 2) and employed automated liquid handlers to conduct serial dilutions and liquid transfers. Automated liquid handlers included the Multidrop 384 (Labsystems, Helsinki, Finland), Biomek 2000 and Biomek FX (Beckman Coulter, Fullerton Calif.). The wells in columns 2-12 in standard 96-well microdilution plates (Costar 3795) were filled with 150 μl of the appropriate diluent (95% EtOH for investigational compounds, 100% DMSO for amphotericin B). These assay plates would become the ‘mother plates’ from which the assay ‘daughter plates’ would be prepared. The drugs (300 μL at 40× the desired top concentration in the test plates) were dispensed into the appropriate well in Column 1 of the mother plates. The Biomek 2000 was used to make two-fold serial dilutions through Column 11 in the “mother plate”. The wells of Column 12 contained no drug and served as the organism growth control wells.
(§7) The daughter plates were loaded with 185 μL per well on the Multidrop 384 with RPMI plus 0.002% Tween-80 or RPMI containing no Tween-80 for the testing of the two QC isolates. The daughter plates were prepared on the Biomek FX instrument which transferred 5 μL of drug solution from each well of a mother plate to each corresponding well of each daughter plate in a single step.
(§8) A standardized inoculum of each organism was prepared per CLSI methods (1, 2). For the Candida isolates, colonies were picked from the streak plate and a suspension was prepared in RPMI to equal a 0.5 McFarland standard. This suspension was diluted 1:100 in RPMI resulting in a final concentration of approximately 0.5-2.5×10^3 CFU/mL. […]

[1] = tested on: A. fumigatus MMX 6782 ATCC 13073; assay: MIC/MEC assay (CLSI microdilution); assay type: cell-based; details: Aspergillus fumigatus, ATCC13073, 48 h; for minimal effective concentration: RPMI plus 0.002% Tween-80, read-out: MEC; for MIC: RPMI plus 0.002% Tween-80, read-out: MIC
Description: as §1, §2, §3, §4, §5, §6, §7, §8

A. flavus MMX 5948 = assay: MIC/MEC assay (CLSI microdilution); assay type: cell-based; details: Aspergillus flavus, MMX5948, 48 h; for minimal effective concentration: RPMI plus 0.002% Tween-80; for MIC: RPMI plus 0.002% Tween-80, read-out: MIC
Description: as §1, §2, §3, §4, §5, §6, §7, §8

[2] = tested on: A. niger MMX 0624 ATCC 16888; assay: MIC/MEC assay (CLSI microdilution); assay type: cell-based; details: for minimal effective concentration: RPMI plus 0.002% Tween-80, read-out: MEC
Description: as §1, §2, §3, §4, §5, §6, §7, §8

[3] = tested on: A. fumigatus MMX 6781 ATCC MYA-4609; assay: MIC/MEC assay (CLSI microdilution); assay type: cell-based; details: Aspergillus fumigatus; for MIC: 48 h, RPMI plus 0.002% Tween-80, read-out: MIC; for minimal effective concentration: RPMI plus 0.002% Tween-80, 48 hr
Description: as §1, §2, §3, §4, §5, §6, §7, §8

[4] = tested on: C. albicans MMX 2000 ATCC 10231; assay: MIC assay (CLSI microdilution); assay type: cell-based; details: Candida albicans, ATCC10231, RPMI plus 0.002% Tween-80; read-out: MIC
Description: as §1, §2, §3, §4, §5, §6, §7, §8

[5] = tested on: C. neoformans MMX 0634 ATCC 90112; assay: MIC assay (CLSI microdilution); assay type: cell-based; details: Cryptococcus neoformans, ATCC90112, RPMI plus 0.002% Tween-80; read-out: MIC
Description: as §1, §2, §3, §4, §5, §6, §7, §8

[6] = tested on: C. parapsilosis MMX 2323 ATCC 22019; assay: MIC assay (CLSI microdilution); assay type: cell-based, Candida parapsilosis; details: read-out: MIC
Description: as §1, §2, §3, §4, §5, §6, §7, §8

[7] = tested on: A. fumigatus MMX 5280 ATCC MYA-3626; assay: MIC/MEC assay (CLSI microdilution); assay type: cell-based, Aspergillus fumigatus; details: Aspergillus fumigatus, 48 h
Description: as §1, §2, §3, §4, §5, §6, §7, §8

[8] = RPMI plus 0.002% Tween-80, 48 hr
[9] = ATCC22019, RPMI plus 0.002% Tween-80
[10] = RPMI plus 0.002% Tween-80, read-out: MEC
[11] = RPMI plus 0.002% Tween-80, read-out: MIC
[12] = Without Tween-80, read-out: MEC
[13] = Without Tween-80, read-out: MIC
[14] = Aspergillus niger, ATCC16888, 48 h
[15] = Aspergillus niger, ATCC16888, 48 h, RPMI plus 0.002% Tween-80, read-out: MIC

MIC (A. fumigatus MMX 5944)	MIC [1]	MIC (A. flavus MMX 5948)	MIC [2, 8]	MIC [3]	MIC [4]	MIC [5]	MIC [6, 9]	MIC ([6]; ATCC22019, Without Tween-80)	MIC [7, 11]	MIC [7, 13]	MIC [2, 15]	SMILES	minimal effective concentration (A. fumigatus MMX 5944)	minimal effective concentration [1]	minimal effective concentration (A. flavus MMX 5948)	MEC [2, 8]	minimal effective concentration [3]	minimal effective concentration [7, 10]	minimal effective concentration [7, 12]	minimal effective concentration [2, 14]
> 64 µg/mL	> 64 µg/mL	> 64 µg/mL	1/1 μg/mL	> 64 µg/mL	0.12 µg/mL	0.12 µg/mL	0.5 µg/mL	2 µg/mL (≈ 1.61 µM)	> 64 µg/mL	> 64 µg/mL	–	CC[C@H](C)[C@@H]1NC(=O)[C@@H]2CCCN2C(=O)[C@H](Cc2cccc(-c3ccc(C(F)(F)F)cc3)c2)N(C)C(=O)[C@H](Cc2ccccc2)NC(=O)[C@H](C(C)C)N(C)C(=O)[C@@H]([C@@H](C)CC)OC(=O)[C@H](C(C)(C)O)N(C)C(=O)[C@H](CC(C)C)NC(=O)[C@H](C(C)C)N(C)C1=O [Compound 3] (cyclo(F[X28]PI[NMeV]L[NMeVal(β-OH)][Hmp(2R,3S)][NMeV]))	> 64 µg/mL	> 64 µg/mL	> 64 µg/mL	1/1 μg/mL	> 64 µg/mL	> 64 µg/mL	> 64 µg/mL	–
> 64 µg/mL	> 64 µg/mL	> 64 µg/mL	–	> 64 µg/mL	0.12 µg/mL	0.25 µg/mL	0.5 µg/mL	2 µg/mL (≈ 1.61 µM)	> 64 µg/mL	> 64 µg/mL	0.5 µg/mL	CC[C@H](C)[C@@H]1NC(=O)[C@@H]2CCCN2C(=O)[C@H](Cc2cccc(-c3cccc(C(F)(F)F)c3)c2)N(C)C(=O)[C@H](Cc2ccccc2)NC(=O)[C@H](C(C)C)N(C)C(=O)[C@@H]([C@@H](C)CC)OC(=O)[C@H](C(C)(C)O)N(C)C(=O)[C@H](CC(C)C)NC(=O)[C@H](C(C)C)N(C)C1=O [Compound 4] (cyclo(F[X31]PI[NMeV]L[NMeVal(β-OH)][Hmp(2R,3S)][NMeV]))	1 µg/mL	1 µg/mL	> 64 µg/mL	–	> 64 µg/mL	> 64 µg/mL	> 64 µg/mL	0.5 µg/mL
> 64 µg/mL	> 64 µg/mL	1 µg/mL	–	> 64 µg/mL	0.12 µg/mL	0.12 µg/mL	0.5 µg/mL	2 µg/mL (≈ 1.63 µM)	> 64 µg/mL	> 64 µg/mL	0.5 µg/mL	CC[C@H](C)[C@@H]1NC(=O)[C@@H]2CCCN2C(=O)[C@H](Cc2cccc(-c3ccc4ccccc4c3)c2)N(C)C(=O)[C@H](Cc2ccccc2)NC(=O)[C@H](C(C)C)N(C)C(=O)[C@@H]([C@@H](C)CC)OC(=O)[C@H](C(C)(C)O)N(C)C(=O)[C@H](CC(C)C)NC(=O)[C@H](C(C)C)N(C)C1=O [Compound 5] (cyclo(F[X33]PI[NMeV]L[NMeVal(β-OH)][Hmp(2R,3S)][NMeV]))	0.5 µg/mL	0.5 µg/mL	0.5 µg/mL	–	0.5 µg/mL	0.5 µg/mL	4 µg/mL	0.5 µg/mL
